From US4303785A, “Antitumor anthracycline antibiotics” (priority 1978, dated 1981)
In brackets after ≈: the same amount, converted by molar mass. Where two headings read alike, the source gives them in different places.

How the values were obtained:
[1] = test system: L1210 leukemia; assay: Antitumor activity in BDF1 mice inoculated with L1210 leukemia cells (Table 6); assay type: in vivo; conditions: once daily for 10 days
Source text: As an example, BDF1 mice were inoculated intraperitoneally with 1×10^6 cells/mouse of L1210 leukemia cells.

[2] = test system: L1210 cells; assay: Inhibition of 14C-uridine and 14C-thymidine incorporation (nucleic acid synthesis) in L1210 cells in culture (Table 5); assay type: cell-based; conditions: Mus musculus, L1210, 1 h
Procedure: The effect of the tetrahydropyranyl ether derivatives of formula I' on nucleic acid synthesis was examined as follows: […]
1×10^5 cells/ml. of L1210 cells were suspended in RPMI medium containing 10% calf serum, pre-cultivated at 37° C. for 1 to 2 hours in a CO2 incubator and then the test compounds were added to the medium at various concentrations. After 15 min. of incubation, ^14 C-uridine (0.05 μCi/ml.) or ^14 C-thymidine (0.05 μCi/ml.) was added and incubated at 37° C. for 60 min. Trichloroacetic acid (TCA) (10%) was added to the incubation medium to stop the reaction and precipitate the acid-insoluble materials, and then the precipitate was washed three times with 5 to 10% […]. The radioactivity was measured and expressed as 50% inhibition concentration of incorporation.

[3] = test system: L1210 cells; assay: animal or person; assay type: in vivo, CDF1 mice; conditions: Mus musculus, L1210, ip, 1080 h, once daily for 10 days, read-out: Antitumor Activity (T/C, prolongation rate of survival day)
[4] = test system: L1210 leukemia cells; assay: Growth inhibitory effect on L1210 cells in culture (Table 4); assay type: cell-based; conditions: Mus musculus, L1210, read-out: Inhibition Rate (growth)
Procedure: For example, L1210 cells (5×10^4 cells/ml.) were inoculated in RPMI 1640 medium (Roswell Park Memorial Institute 1640) containing 20% calf serum and cultivated at 37° C. in the presence of 0.1 and 0.5 μg./ml. of the test compounds in a CO2 incubator.

[5] = test system: various experimental tumors; conditions: cited from earlier work
[6] = clinical antitumor agents; cited from earlier work

Question: Which “Antitumor Activity (T/C, prolongation rate of survival day)” value (shortened to “Antitumor Activity”) ([1]; 0.15 mg./kg./day i.p.) does the source give for `COc1cccc2c1C(=O)c1c(O)c3c(c(O)c1C2=O)C[C@@](O)(C(=O)CO)C[C@@H]3O[C@H]1C[C@H](N)[C@H](O)[C@H](C)O1` [Adriamycin, adriamycin, reference compound] here?
Answer: The value was 128%.

Question: What about the “Antitumor Activity” value ([1]; 0.3 mg./kg./day i.p.) of the same molecule?
Answer: The value was 165%.

Question: And the “Antitumor Activity” value ([1]; 5 mg./kg./day i.p.)?
Answer: The value was “toxic”.

Question: And the IC50 ([2]; read-out: 50% Inhibition Concentration of 14C-Thymidine Incorporation)?
Answer: The IC50 was 2.1 µg/mL (≈ 3.86 µM).

Question: What about the IC50 ([2]; read-out: 50% Inhibition Concentration of 14C-Uridine Incorporation) of the same molecule?
Answer: The IC50 was 0.5 µg/mL (≈ 0.92 µM).

Question: What about the response vs control in vivo at 0.15 mg/kg ([3]; 0.15 mg/kg/day i.p.) of the same molecule?
Answer: The response vs control in vivo at 0.15 mg/kg was 130%.

Question: What about the response vs control in vivo at 0.31 mg/kg ([3]; 0.31 mg/kg/day i.p.) of the same molecule?
Answer: The response vs control in vivo at 0.31 mg/kg was 147%.

Question: What about the response vs control in vivo at 0.625 mg/kg ([3]; 0.625 mg/kg/day i.p.) of the same molecule?
Answer: The response vs control in vivo at 0.625 mg/kg was 239%.

Question: What about the response vs control in vivo at 1.25 mg/kg ([3]; 1.25 mg/kg/day i.p.) of the same molecule?
Answer: The response vs control in vivo at 1.25 mg/kg was 272%.

Question: What about the response vs control in vivo at 2.5 mg/kg ([3]; 2.5 mg/kg/day i.p.) of the same molecule?
Answer: The response vs control in vivo at 2.5 mg/kg was 351%.

Question: And the response vs control in vivo at 5 mg/kg ([3]; 5 mg/kg/day i.p.)?
Answer: Its response vs control in vivo at 5 mg/kg is 189%.

Question: And the inhibition at 0.1 µg/mL [4]?
Answer: Its inhibition at 0.1 µg/mL is 70.7%.

Question: What about the inhibition at 0.5 µg/mL [4] of the same molecule?
Answer: Its inhibition at 0.5 µg/mL is 84.2%.

Question: What about the antitumor spectrum [5] of the same molecule?
Answer: Its antitumor spectrum is “broad antitumor spectrum against various experimental tumors”.

Question: What about the “side effects in clinical use” value [6] of the same molecule?
Answer: The value was “severe side effects such as alopecia, leukopenia and cardiotoxicity”.
